Test results: ChEMBL document CHEMBL1149978, “Synthesis of adamantane spiro sultones as potential antiviral agents” (Bioorg Med Chem Lett, 1992)
Active and inactive are the calls of the source.

Assays:
[1] = test system: Human immunodeficiency virus 2; assay: Antiviral activity against human immunodeficiency virus type 2 (HIV-2) at concentrations up to 200 ug/mL; NA means Inactive; assay type: functional, organism-based
Human respirovirus 3 = assay: Antiviral activity against parainfluenza-3 at concentrations up to 200 ug/mL; NA means Inactive; assay type: functional, organism-based
Influenza B virus = assay: Antiviral activity against influenza-B at concentrations up to 200 ug/mL; NA means Inactive; assay type: functional, organism-based
[2] = test system: Human immunodeficiency virus 1; assay: Antiviral activity against human immunodeficiency virus type 1 (HIV-1) at concentrations up to 200 ug/mL; NA means Inactive; assay type: functional, organism-based
Influenza A virus = assay: Antiviral activity against influenza-A at concentrations up to 200 ug/mL; NA means Inactive; assay type: functional, organism-based
[3] = Antiviral activity against measles at concentrations up to 200 ug/mL; NA means Inactive; assay type: functional
[4] = Antiviral activity against respiratory syncytial at concentrations up to 200 ug/mL; NA means Inactive; assay type: functional

Measured: Activity

NC1=CS(=O)(=O)OC12C1CC3CC(C1)CC2C3 (configuration not stated)
not listed: [3] | [4]
inactive: all other assays above

O=C1CS(=O)(=O)OC12C1CC3CC(C1)CC2C3 (configuration not stated)
inactive: all assays above
